Assays:
[1] = system: Psf protein (arabinose 5-phosphate isomerase); experiment: Colorimetric assay for keto-pentoses with purified Psf protein; format: biochemical, N. meningitidis; conditions: 37° C., 10 min, 100 mM Tris-HCl pH 7.5, A540
Source text: Psf is the arabinose 5-phosphate isomerase of N. meningitidis. […] To determine if Psf had isomerase activity, a colorimetric assay for keto-pentoses (Bigham et al., 1984) was first conducted using the purified Psf protein, which contained a C-terminal 6×His tag (FIG. 9A). […] The reaction was dependent on the concentration of Psf protein. […] The NMR chemical shifts of the phosphoryl groups of arabinose 5-P and ribulose 5-P are different, thus ^31P NMR can monitor the interconversion between the two sugars. […] The LOS defect in the psf mutant, but not the kdsB mutant, can be complemented by (exogenous) supplementation of arabinose in the growth medium (FIG. 9B), consistent with the identification of the Psf protein as an arabinose 5-phosphate isomerase.
The procedure of Dische and Borenfreund (Dische and Borenfreund, 1951, as modified by Bigham (Bigham, 1984) was used to determine the presence of ketopentoses. Briefly, enzyme was incubated at 37° C. for 10 min in the presence of various aldopentoses (ribose 5-phosphate, erythrose 4-phosphate, glucose 6-phosphate, and arabinose) and 100 mM Tris-HCl (pH 7.5) buffer and assayed as follows. A 250 μl aliquot of the reaction solution was quenched with the addition of 50 μl of a 1.5% cysteine solution followed immediately by 1.5 ml of concentrated H2S04. A 50 μl aliquot of 0.12% carbazole in 95% ethanol was then added, and the solution was heated at 37° C. for 30 min. The absorbance was read at 540 nm. As reported by Bigham et al. (1984), the conversion of 1 μmol of A5P to 1 μmol of Ru5P gave an ΔA of 8.2.

[2] = target: T1, CD14/TLR4-MD-2 receptor complex (Homo sapiens, UniProt O00206+Q9Y6Y9); experiment: Activation of receptor complex by synthetic KDO; format: cell-based; conditions: dose ranges from 10 ng-100 mg; data not shown
T1 construct: endogenous in cells
Source text: Acid hydrolysis might affect lipid A phosphate head groups and contribute to attenuation.

[3] = system: differentiated U937 and THP-1 human macrophage-like cells; experiment: Cytokine (TNFa, IL-1b, IL-8, IL-10) induction in macrophage-like cells stimulated with endotoxin; format: cell-based; conditions: 2 mg/ml added during the induction assay
Source text: The meningococcal mutant LOS preparations were used to investigate the role of endotoxin structure on the activation of macrophages via the CD14/TLR4-MD-2 receptor complex. Endotoxins were quantified and standardized based on lipid A content. Cytokine (TNFa, IL-1b, IL-8 or IL-10) induction, nitric oxide and reactive oxygen species (ROS) release from differentiated U937 and THP-1 human macrophage-like cells or RAW264.7 murine macrophages stimulated with endotoxin (0.56 pmole/ml, approximately 1 ng/ml) was studied.
Alternatively, LOS from a genetically-defined mutants of the serogroup B N. meningitidis strain NMB (encapsulated, L2 immunotype) (listed in Table I) were initially extracted by the phenol-water method (21). Residual membrane phospholipids (unsaturated fatty acyl residues C18:0) were removed by repeated extraction of the dry LOS samples with 9:1 ethanol:water. The expected LOS fatty acyl components of 3-OHC12:0, 3-OHC14:0 and C12:0 and the absence of membrane phospholipids was assessed by Mass spectroscopy (GC-MS). LOS preparations were examined by SDS-PAGE (22), quantitated and standardized based on the number of lipid A molecules per sample (23). […] The resulting methyl b-trimethylsilylmyristate was identified and quantified by GC-MS analysis. […]

T1 sequence (O00206 24-839): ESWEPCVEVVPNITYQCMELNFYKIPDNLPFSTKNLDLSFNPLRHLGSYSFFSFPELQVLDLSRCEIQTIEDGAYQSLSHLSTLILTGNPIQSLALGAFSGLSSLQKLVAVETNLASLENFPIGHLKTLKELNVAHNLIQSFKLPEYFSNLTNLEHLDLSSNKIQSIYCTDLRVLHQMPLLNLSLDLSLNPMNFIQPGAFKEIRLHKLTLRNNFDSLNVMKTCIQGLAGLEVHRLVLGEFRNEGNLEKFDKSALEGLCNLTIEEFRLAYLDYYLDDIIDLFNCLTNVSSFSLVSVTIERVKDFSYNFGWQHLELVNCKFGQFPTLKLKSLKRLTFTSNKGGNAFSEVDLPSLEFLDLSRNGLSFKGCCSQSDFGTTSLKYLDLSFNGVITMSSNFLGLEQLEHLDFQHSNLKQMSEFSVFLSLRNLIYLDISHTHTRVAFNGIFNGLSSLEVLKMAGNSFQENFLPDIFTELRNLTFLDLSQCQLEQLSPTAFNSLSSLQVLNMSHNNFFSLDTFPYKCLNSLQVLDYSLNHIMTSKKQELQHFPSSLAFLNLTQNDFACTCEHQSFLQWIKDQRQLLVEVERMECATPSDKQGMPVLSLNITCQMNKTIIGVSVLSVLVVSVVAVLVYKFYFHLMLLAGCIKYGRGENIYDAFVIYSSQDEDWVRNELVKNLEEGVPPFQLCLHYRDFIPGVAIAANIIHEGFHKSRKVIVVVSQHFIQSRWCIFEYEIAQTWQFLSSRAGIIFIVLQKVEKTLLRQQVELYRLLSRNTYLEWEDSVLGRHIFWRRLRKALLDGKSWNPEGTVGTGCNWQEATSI
T1 sequence (Q9Y6Y9 19-160): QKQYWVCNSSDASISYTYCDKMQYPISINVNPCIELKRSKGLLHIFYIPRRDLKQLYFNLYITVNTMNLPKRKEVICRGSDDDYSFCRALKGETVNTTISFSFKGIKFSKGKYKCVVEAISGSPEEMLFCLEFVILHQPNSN

| Compound | substrate for the Psf protein [1] | further results |
| --- | --- | --- |
| O=C[C@H](O)[C@H](O)[C@H](O)COP(=O)(O)O [ribose 5-phosphate] | did not serve as substrates | – |
| O=C(O)C(=O)CC(O)C(O)C(O)C(O)CO (stereo not drawn) [Synthetic KDO, 2-keto-3-deoxyoctonic acid] | – | activation of the CD14/TLR4-MD-2 receptor complex [2]: did not activate |
| O=C[C@@H](O)[C@H](O)[C@H](O)CO [arabinose] | did not serve as substrates | – |
| polymyxin B | – | effect on meningococcal LOS-induced cytokine release [3]: neutralized |
| O=C[C@H](O)[C@@H](O)[C@H](O)[C@H](O)COP(=O)(O)O [glucose 6-phosphate] | did not serve as substrates | – |
| O=C[C@H](O)[C@H](O)COP(=O)(O)O [erythrose 4-phosphate] | did not serve as substrates | – |

From US7807181B2, “Neisseria mutants, lipooligosaccharides and immunogenic compositions” (Emory University, priority 2002, dated 2010)
